US11464749B2, “Bismuth-thiol compositions and methods of use” (Microbion Corporation, priority 2018, dated 2022)
Converted amounts (≈) assume the structure as drawn. “And” between values parts separate entries of the source, which are not always exact repeats. Equal values may be shown once. Read-outs that look alike come from different tables or passages of the source.

Key:
Burkholderia spp. = settings: initial MIC testing
[1] = test system: beta-hemolytic streptococci; experiment: Broth microdilution MIC (Example 11); settings: read-out: MIC values
C. albicans = experiment: Broth microdilution MIC, yeast (Example 11); type: cell-based
S. aureus ATCC 29213 = settings: control strain ATCC 29213; per CLSI M100-S24 or provided by Microbion; cited from earlier work

| Compound | MIC (Burkholderia spp.; B. multivorans isolate 1580 (CIP-R)) | MIC (Burkholderia spp.; B. multivorans isolate 1791) | MIC (Burkholderia spp.; B. multivorans isolate 1795 (MEM-I, CIP-R)) | MIC (Burkholderia spp.; B. multivorans isolate 5665 (CIP-I)) | MIC (Burkholderia spp.; B. multivorans isolate 8952 (CIP-I)) | MIC [1] | MIC (C. albicans; C. albicans MMX 7055, Sensitive, 48 hr) | MIC (C. albicans; Candida albicans, 24 h) | MIC (C. albicans; Candida albicans, 48 h) | Expected MIC: goal (acceptable range) (S. aureus ATCC 29213) |
| --- | --- | --- | --- | --- | --- | --- | --- | --- | --- | --- |
| C[C@@H](O)[C@H]1C(=O)N2C(C(=O)O)=C(S[C@@H]3CN[C@H](C(=O)N(C)C)C3)[C@H](C)[C@H]12 [MEM] | 2 µg/mL (≈ 5.22 µM) | 4 µg/mL (≈ 10.4 µM) | 8 µg/mL (≈ 20.9 µM) | 2 µg/mL (≈ 5.22 µM) | 2 µg/mL (≈ 5.22 µM) | – | – | – | – | – |
| CC(S)C(C)S.[Bi] (stereo not shown) [BisBDT, bismuth-2,3-butanedithiol] | – | – | – | – | – | 0.03 to 2 µg/mL | 2, 2 μg/mL | 2 µg/mL | 2 µg/mL | 0.25 mcg/mL and 0.25 (0.12-0.5) mcg/mL |
